Results on three molecules are retold here after patent US6548488B2, “Composition comprising camptothecin or a camptothecin derivative and an alkylating agent for the treatment of cancer” (priority 2000, dated 2003).

Structures are written as SMILES. Where two headings read alike, the source gives them in different places. Marks after values point to notes of the source that are not given here.

In one series the test system is MA16/C, sc. The procedure:
(§1) This efficacy may be quantified, for example by the log10 cell kill, which is determined by the following formula:
(§2) log10 cell kill=T-C(days)/3.32×Td
(§3) in which T-C represents the time taken for the cells to grow, which is the mean time in days for the tumors of the treated group (T) to reach a predetermined value (1 g for example) and the tumors of the control group (C) to reach the same value, and Td represents the time in days needed for the volume of the tumor in the control group to double (T. H. Corbett et al., Cancer, 40: 2660-2680 (1977); F. M. Schabel et al., Cancer Drug Development, Part B, Methods in Cancer Research, 17: 3-51, New York, Academic Press Inc. (1979)). A product is considered to be active if the log10 cell kill is greater than or equal to 0.7. A product is considered to be very active if the log10 cell kill is greater than 2.8.
The effectiveness of irinotecan combination chemotherapy methods were tested in a dose response study in a murine tumor model. Three arms were evaluated for tolerance and efficacy. Tolerance was measured by mortality, body weight loss at nadir, host recovery time, and combination toxicity index. Efficacy end points for solid tumor models were tumor growth delay (T/C), log10 cell kill (LCK, defined above), tumor regressions (i.e., complete remission (CR),or partial remission (PR)). For non-solid tumors, such as leukemia, efficacy was measured as the increase in life span (ILS).
Combination toxicity index (CTI) was calculated as the sum of the fraction of LD10's for each agent used in each combination (Cancer Treatment Reports, 66(5): 1187-1200 (1982)). The LD10 for the single agent was obtained by plotting the toxicity of that agent and the dosage in mg/kg as a log probit graph. Subsequently, the CTI LD10 was obtained by plotting as a log probit graph the observed lethality and the corresponding CTI calculated as the sum of the fraction of the LD10 of each single agent. When the CTI equals one, only 50% of the LD10's of each agent can be used in combination without additional toxicity, and when the CTI equals two, 100% of the LD10's of each agent can be used in combination without additional toxicity.

The subject of another series is P388. The format is in vivo, mice. Conditions: for %ILS: highest non-toxic dose.
Series [1] relates to mammary adenocarcinoma MA16/C/sp. Here is the method: as §1, §2, §3
The effect of the combination of CPT-11 and cyclophosphamide was evaluated in a three arn study in mice bearing mammary adenocarcinoma MA16/C/sp. In the first arm, four dose levels of CPT-11 were given orally on days three through seven. In the second arm, five dose levels of cyclophosphamide were given intravenously on days three, five and seven. In the combination third arm, eight dosage levels of CPT-11 were administered orally on days three through seven, with administration of eight dosage levels of cyclophosphamide intravenously on days three, five and seven. This third arm illustrated an example of semi-simultaneous administration.

The subject of a further series is P388/CPT. The experiment in a line: Chemosensitivity of camptothecin-resistant i.p. P388/CPT leukemia, increase in life span. The format is in vivo, mice. Particulars: for Comment: response of P388/CPT. Here is the method:
Cross-resistance was measured in murine leukemia cell lines. P388/CPT is a camptothecin-resistant leukemia that was established in vitro (Biochem. Pharmacol., 45: 339 (1993) and maintained in vivo by i.p. passages in DBA2 female mice. The chemosensitivity of i.p. P388/CPT was evaluated with i.v. P388 sensitive reference drugs with different mechanisms of action. Antitumor efficacy was determined at the highest non-toxic dose as percent increase in life span (ILS), where:
ILS=100×[(median day of death (MDD) of treated mice)−(MDD control mice)]÷(MDD control mice)
A minimal level of activity equals an ILS of greater than 26%. […] Table III tabulates the results from this study.

The test system of the next series is C26. The experiment in a line: Oral vs i.v. irinotecan, C26 tumor in BALB/c mice. The format is in vivo. Conditions: for LCK: optimal total dose. Here is the method: as §2
(§4) Three arms were evaluated for tolerance and efficacy.
(§5) The optimal total dose for oral and intravenous administration routes for irinotecan alone in various murine models is indicated in Table II.

The test system of another series is MA16/C. The series is described as follows: Oral vs i.v. irinotecan, MA16/C tumor in C3H/HeN mice. The format is in vivo. Particulars: for Optimal Total Dose: days 5-9; for LCK: days 5-9, optimal total dose. The procedure:
as §2, §4, §5

The nature of series [2]: Tolerance of oral vs i.v. irinotecan in tumor bearing mice. The format is in vivo. Conditions: both methods of administration (oral and i.v.). Here is the method:
as §4

Another series deals with GOS. The experiment in a line: Oral vs i.v. irinotecan, GOS tumor in B6D2F1 mice. Conditions: for LCK: optimal total dose. The format is in vivo. Here is the method: as §2, §4, §5
For the next series, the system named is P03. The experiment in a line: Oral vs i.v. irinotecan, P03 tumor in B6D2F1 mice. The format is in vivo. Conditions: twice daily; for LCK: optimal total dose. Here is the method:
as §2, §4, §5

The next series has as its system C51. The experiment in a line: Oral vs i.v. irinotecan, C51 tumor in BALB/c mice. The format is in vivo. Conditions: days 5, 7, 9, 13, 15, twice daily; for LCK: optimal total dose. Here is the method:
as §2, §4, §5

The mark [3] stands for this setting: CPA i.v. 37.0 mg/kg/adm, days 3, 5, 7.
[4] abbreviates: CPA i.v. 60.0 mg/kg/adm, days 3, 5, 7.
The mark [5] stands for this setting: CPA i.v. 97.0 mg/kg/adm, days 3, 5, 7 (HNTD).
Where [6] appears, read: CPA i.v. 156.0 mg/kg/adm, days 3, 5, 7.
The mark [7] stands for this setting: CPT-11 p.o. 25.0 mg/kg/adm, days 3-7.
[8] abbreviates: CPT-11 p.o. 40.0 mg/kg/adm, days 3-7 (HNTD).

`O=P1(N(CCCl)CCCl)NCCCO1` (centres unmarked) [CPA, cyclophosphamide]: the “HNTD Dose” value with MA16/C, sc (cyclophosphamide, i.v. alone, days 3, 5, 7) was found to be 291 mg/kg. In addition, in the series with MA16/C, sc (cyclophosphamide, i.v. alone, days 3, 5, 7, at HNTD), the LCK is on record as 2.8. Also, in the series on P388 (i.v.), the “sensitivity of the camptothecin sensitive cell line” value is given as “very sensitive”. Moreover, the “%ILS” value in the series with P388 (i.v.) is recorded as 245%; in the series on P388/CPT (i.v., highest non-toxic dose), 153%. The Comments entry was “Inactive” in series [1] (CPA i.v. 23.0 mg/kg/adm, days 3, 5, 7); “Active” in [1] (setting [3]); “Active” in [1] (setting [4]); “HNTD Highly Active” in [1] (CPA i.v. 97.0 mg/kg/adm, days 3, 5, 7); “Toxic” in series [1] (setting [6]). In addition, the Log10 cell kill is on record as 1.0 in [1] (setting [3]), 1.9 in series [1] (setting [4]), 2.8 in [1] (setting [5]) and “NTBA” in series [1] (setting [6]). Besides, the “T-C” value in series [1] (setting [3]) amounted to 3.8 days; in [1] (setting [4]) it was 6.9 days; in series [1] (setting [5]), 10.3 days. Moreover, the “Time for median tumor to reach 750 mg” value in series [1] (setting [3]) is 12.0 days; in [1] (setting [4]), 15.1 days; in series [1] (setting [5]), 18.5 days. In addition, in series [1] (setting [6]), the “T-C (days)” value was “NTBA”. Also, the “Time for median tumor to reach 750 mg in days” value in [1] (setting [6]) is “NTBA”. Besides, the TFS in the series with P388/CPT (i.v., highest non-toxic dose) is 1/5. Besides, the Comment entry is recorded as “sensitive” in the series on P388/CPT (i.v., listed as Cyclophosphamide) and “very sensitive” in the series on P388/CPT (i.v., listed as cyclophosphamide).
Consider `CC[C@@]1(O)C(=O)OCc2c1cc1n(c2=O)Cc2cc3ccccc3nc2-1` [CPT, camptothecin], for which the “%ILS” value was found to be 82% with P388 (sc) and 0% in the series with P388/CPT (sc, highest non-toxic dose). The Comment entry in the series on P388/CPT (sc) is on record as “resistant”.
Consider `CCc1c2c(nc3ccc(OC(=O)N4CCC(N5CCCCC5)CC4)cc13)-c1cc3c(c(=O)n1C2)COC(=O)[C@]3(O)CC` [CPT-11, irinotecan], for which, in the series on MA16/C, sc (CPT-11, i.v. alone, days 3-7), the “HNTD Dose” value turned out to be 200 mg/kg. For the same molecule, the LCK was determined as 2.0 in the series on MA16/C, sc (CPT-11, i.v. alone, days 3-7, at HNTD); 0.7 with C26 (i.v., twice daily); 0.9 in the series on C26 (oral, days 3-7, twice daily); 2.6 in the series with MA16/C (i.v.); 2.7 with MA16/C (oral); 2.2 in the series with GOS (i.v., days 3, 5, 7 twice daily). The LCK is on record as 2.1 in the series with GOS (oral, days 3-7, twice daily); 3.2† in the series with P03 (i.v.); 3.4† in the series with P03 (oral); 3.0 with C51 (i.v.); 2.5 in the series on C51 (oral). The “%ILS” value worked out at 91% in the series on P388 (i.v.) and 0% in the series on P388/CPT (i.v., highest non-toxic dose). Moreover, the Comments entry is listed as “Active” in series [1] (setting [7]); “HNTD Active” in [1] (CPT-11 p.o. 40.0 mg/kg/adm, days 3-7); “Toxic” in [1] (CPT-11 p.o. 64.0 mg/kg/adm, days 3-7); “Toxic” in series [1] (mouse, in vivo, po, 103 mg/kg). Further, the Log10 cell kill was determined as 1.1 in [1] (setting [7]) and 2.0 in [1] (setting [8]). Moreover, the entries for the “T-C” value in series [1] (setting [7]) and in [1] (setting [8]) were 4.1 days and 7.3 days, respectively. Moreover, the “Time for median tumor to reach 750 mg” value in series [1] (setting [7]) was 12.3 days; in [1] (setting [8]), 15.5 days. Further, the “Optimal Total Dose” value in the series with C26 (i.v., twice daily) turned out to be 228 mg/kg; in the series on C26 (oral, days 3-7, twice daily), 558 mg/kg; in the series with MA16/C (i.v.), 130.5 mg/kg; with MA16/C (oral) it was 230.5 mg/kg; in the series on GOS (i.v., days 3, 5, 7 twice daily), 346.2 mg/kg; in the series on GOS (oral, days 3-7, twice daily), 900 mg/kg. Further, the “Optimal Total Dose” value in the series with P03 (i.v.) was 346.2 mg/kg; in the series with P03 (oral) it was 900 mg/kg; with C51 (i.v.), 615 mg/kg; with C51 (oral), 845 mg/kg. In [2], this molecule came in with a body weight loss of 8.5%. Moreover, in [2], the nadir is on record as 7 days post last administration. The Comment result with P388/CPT (i.v.) is recorded as “resistant”.
